Results: patent US4026891A, “5- Or 6-pyridazinyl-benzimidazoles and salts thereof” (Boehringer Ingelheim GmbH, priority 1974, dated 1977)
Structures can show the parent of a compound that is named as a salt.

Key:
[1] = system: thrombocyte aggregation in platelet-rich plasma of healthy human donors; test: thrombocyte (platelet) aggregation inhibiting activity, method of Born and Cross, collagen-induced; format: cell-based; details: 10^-4 mol/l, optical density, read-out: Inhibition in % after addition of 10^-4 mol/l, O.D.
Experimental: (1) Determination of thrombocyte aggregation inhibiting activity by the method of Born and Cross [see J. Physiol. 170, 397 (1964)]:
The platelet aggregation inhibiting activity was determined in the platelet-rich plasma of healthy human donors. The rate of decline of the optical density of the platelet suspension was measured and recorded photometrically after the addition of commercial collagen containing 1 mgm of collagen fibrils per ml. From the angle of inclination of the density curve, the rate of aggregation was estimated (Vmax). The optical density was taken as the point on the curve where most light was transmitted (O.D.). To provoke maximum aggregation about 0.01 ml of the collagen solution was added to 1 ml of platelet-rich plasma.

[2] = system: mongrel dogs (arterial blood pressure); test: hypotensive activity in anesthetized mongrel dogs; format: in vivo, dog; details: average of 3 tests
Experimental: (2) Determination of the hypotensive activity:
The hypotensive activity was determined in mongrel dogs of both sexes (body weight between 19 and 26 kg) under chloralose/urethane (54+ 270 mgm/kg i.v.) and nembutal (10 mgm/kg i.v.) anesthesia. After tracheotomy, the animals were attached to a Harvard artificial respirator using normal air. The arterial blood pressure was measured in the arteria femoralis by a Statham pressure transducer P 23 Dc and registered on a Grass polygraph. The compound under investigation was administered in aqueous solution by intravenous injection into the vena saphena.

[3] = system: isolated, spontaneously beating auricles of the guinea pig; test: positive inotropic (cardiotonic) activity on isolated auricles; format: cell-based; details: Cavia porcellus, 10^-5 gm/ml, 30° C., average of at least 5 auricles, read-out: Increase in the force of contraction in %
Experimental: 3. Determination of the positive inotropic (cardiotonic) activity
The positive inotropic activity was determined as the strengthening effect upon the force of contraction of isolated, spontaneously beating auricles of the guinea pig. Freshly isolated auricles were put into a bath of 100 ml of a tyrode solution at a temperature of 30° C. The tyrode solution was infused with carbogen (95% of O2 and 5% of CO2). The spontaneous contractions of the auricles were registered isometrically with a Statham-Force-Displacement-transducer FT 03 C on a Grass polygraph. The auricles were pre-stretched with 1 gm. After an equilibration period of 20-30 minutes the test compound was added at a concentration of 10^-^5 gm/ml.

| SMILES | inhibition at 100 µM [1] [%] | Decrease in blood pressure (figure after the slash) ([2]; 1.0 mgm/kg i.v.) [mm Hg] | Decrease in blood pressure (figure before the slash) ([2]; 1.0 mgm/kg i.v.) [mm Hg] | activation at 10 µg/mL [3] [%] | other results |
| --- | --- | --- | --- | --- | --- |
| Cc1nc2ccc(-c3ccc(=O)[nH]n3)cc2[nH]1 [B, 2-Methyl-5(6)-(3'-oxo-2'H-6'-pyridazinyl)-benzimidazole hydrochloride] | 100 | 32 | 33 | 20 | Decrease in blood pressure (figure after the slash) ([2]; 0.5 mgm/kg i.v.): 25 mm Hg; Decrease in blood pressure (figure before the slash) ([2]; 0.5 mgm/kg i.v.): 18 mm Hg |
| COc1ccc(-c2nc3ccc(C4=NNC(=O)CC4)cc3[nH]2)c(OC)c1 [C, 2-(o,p-Dimethoxy-phenyl)-5(6)-(3'-oxo-4',5'-dihydro-2'H-6'-pyridazinyl)-benzimidazole] | – | 44 | 33 | 12 | Decrease in blood pressure (figure after the slash) ([2]; 0.25 mgm/kg i.v.): 44 mm Hg; Decrease in blood pressure (figure before the slash) ([2]; 0.25 mgm/kg i.v.): 17 mm Hg |
| Cc1nc2ccc(C3=NNC(=O)CC3)cc2[nH]1 [Compound A, 2-Methyl-5(6)-(3'-oxo-4',5'-dihydro-2'H-6'-pyridazinyl)-benzimidazole hydrochloride] | 100 | 38 | 26 | 30 | Decrease in blood pressure (figure after the slash) ([2]; 0.25 mgm/kg i.v.): 9 mm Hg; Decrease in blood pressure (figure before the slash) ([2]; 0.25 mgm/kg i.v.): 7 mm Hg |
| COc1ccc(-c2nc3ccc(C4=NNC(=O)CC4)cc3[nH]2)cc1 [Compound I, 2-(p-Methoxy-phenyl)-5(6)-(3'-oxo-4',5'-dihydro-2'H-6'-pyridazinyl)-benzimidazole] | 100 | – | – | – | – |
| Cc1nc2ccc(-c3ccc(N4CCOCC4)nn3)cc2[nH]1 [D, 2-Methyl-5(6)-(3'-morpholino-6'-pyridazinyl)-benzimidazole] | 89 | – | – | – | – |
| O=C1CCC(c2ccc3nc(-c4ccccc4F)[nH]c3c2)=NN1 [E, 2-(o-Fluoro-phenyl)-5(6)-(3'-oxo-4',5'-dihydro-2'H-6'-pyridazinyl)-benzimidazole hydrochloride] | – | – | – | 15 | – |
| O=C1CCC(c2ccc3nc(C(F)(F)F)[nH]c3c2)=NN1 [F, 2-trifluoromethyl-5(6)-(3'-oxo-4',5'-dihydro-2'H-6'-pyridazinyl)-benzimidazole] | 100 | – | – | – | – |
| Cc1nc2ccc(C3=NN(C)C(=O)CC3)cc2[nH]1 [G, 2-Methyl-5(6)-(2'-methyl-3'-oxo-4',5'-dihydro-2'H-6'-pyridazinyl)-benzimidazole hydrochloride] | – | – | – | 13 | – |
| O=C1CCC(c2ccc3nc[nH]c3c2)=NN1 [H, 5(6)-(3'-oxo-4',5'-dihydro-2'H-6'-pyridazinyl)-benzimidazole] | 100 | – | – | – | – |
| COc1ccc(-c2nc3ccc(-c4ccc(=O)[nH]n4)cc3[nH]2)cc1 [K, 2-(p-Methoxy-phenyl)-5(6)-(3'-oxo-2'H-6'-pyridazinyl)-benzimidazole methanesulfonate] | – | – | – | 33 | – |
